Test results as given in patent publication US8980335B2, “Use of organic acids and essential oils in animal feeding” (DSM IP Assets B.V., priority 2007, dated 2015).

What was measured:
[1] = test system: broiler chickens; assay: Growth performance trial with broiler chickens (day 8 to day 29); type: in vivo, chickens (ROSS PM3); conditions: for Feed conversion (g feed/g gain) / Feed conversion relative to control (control 100.0) / Feed intake (g/bird) / Feed intake relative to control (control 100.0) / Weight gain (g/bird) / Weight gain relative to control (control 100.0): Day 8-29
Procedure: A growth performance trial with broiler chickens was performed from day 8 to day 29. The chickens were housed in wire-floored battery cages. From day-old until day 8, the chickens were fed a pre-experimental diet based on wheat, maize and soybean meal. In the experimental period (day 8 to 29) the chickens received diets based on wheat, rye and soybean meal (composition see Table 1). Groups of birds were weighed on days 8, 15, 22 and 29. The feed consumption for the intermediate periods was determined and body weight gain and feed conversion ratio were calculated.
Beside an un-supplemented control treatment and a positive control containing 10 mg of the antibiotic Avilamycin per kg feed, benzoic acid (VevoVitall) was included at 500 mg per kg feed. In addition, per kg feed, combinations of 250 mg benzoic acid and 50 mg of the composition comprising thymol, eugenol and piperine (herein abbreviated by TEP) as well as either 500 mg benzoic acid and 25 mg TEP or 500 mg benzoic acid and 50 mg TEP were tested, respectively.

[2] = test system: poultry; conditions: cited from earlier work
[3] = test system: pig; conditions: cited from earlier work

Row | Compound | Feed conversion (g feed/g gain) ([1]; dose 500 mg/kg feed) | Feed conversion relative to control (control 100.0) ([1]; dose 500 mg/kg feed) | Feed intake (g/bird) ([1]; dose 500 mg/kg feed) | Feed intake relative to control (control 100.0) ([1]; dose 500 mg/kg feed) | Weight gain (g/bird) ([1]; dose 500 mg/kg feed) | Weight gain relative to control (control 100.0) ([1]; dose 500 mg/kg feed) | Improvement in weight gain compared to the control ([1]; VevoVitall alone at 500 mg/kg) [%] | Dosage in feed at which undesired adverse effects occur [2] [mg/kg poultry feed] | Dosage in feed at which undesired adverse effects occur [3] [mg/kg pig feed] | Improvement in weight gain compared to the control ([1]; Avilamycin 10 mg per kg feed) [%] | Improvement of feed conversion (FCR) compared to the negative control ([1]; Avilamycin 10 mg per kg feed) [%] | Feed conversion (g feed/g gain) ([1]; dose 10 mg/kg feed) | Feed conversion relative to control (control 100.0) ([1]; dose 10 mg/kg feed) | Feed intake (g/bird) ([1]; dose 10 mg/kg feed) | Feed intake relative to control (control 100.0) ([1]; dose 10 mg/kg feed) | Weight gain (g/bird) ([1]; dose 10 mg/kg feed) | Weight gain relative to control (control 100.0) ([1]; dose 10 mg/kg feed)
1 | O=C(O)c1ccccc1 [VevoVitall, benzoic acid] | 2.117 ± 0.093 | 100.8 | 2538 ± 309.6 | 104.3 | 1196 ± 103.0 | 103.1 | 3 | > 5000 | > 10000 |  |  |  |  |  |  |  | 
2 | COC[C@H]1O[C@@H](OC2OC[C@@H]3O[C@]4(O[C@H]3[C@H]2OC(=O)C(C)C)O[C@H](C)[C@@](O)(C(C)=O)[C@@H]2OCO[C@H]24)[C@@H](OC)[C@@H](O)[C@@H]1O[C@@H]1O[C@H](C)[C@H](OC)[C@H](O[C@H]2C[C@@]3(C)OC4(C[C@@H](O)[C@H](O[C@H]5C[C@@H](O)[C@H](OC(=O)c6c(C)c(Cl)c(O)c(Cl)c6OC)[C@@H](C)O5)[C@@H](C)O4)O[C@@H]3[C@@H](C)O2)[C@H]1O (some centres unmarked) [Avilamycin] |  |  |  |  |  |  |  |  |  | 8.7 | 4.3 | 2.008 ± 0.052 | 95.7 | 2533 ± 199.6 | 104.1 | 1261 ± 76.8 | 108.7
